Laboratory results reported in ChEMBL document CHEMBL1128645, “Synthesis and antiviral activity of phosphonate derivatives of enantiomeric dihydro-2H-pyranyl nucleosides” (Bioorg Med Chem Lett, 1995).
Activity calls are given as the source filed them. The calls are words filed in the database; no cut-off is given here.

How the values were obtained:
[1] = test system: Cytomegalovirus; experiment: Antiviral activity against cytomegalovirus (CMV); no activity; format: functional, organism-based
[2] = test system: Human immunodeficiency virus 1; experiment: Antiviral activity against human immunodeficiency virus(HIV-1); no activity; format: functional, organism-based
[3] = test system: Human alphaherpesvirus 2; experiment: Antiviral activity against herpes simplex virus (HSV-2); no activity; format: functional, organism-based
[4] = test system: Human alphaherpesvirus 1; experiment: Antiviral activity against herpes simplex virus (HSV-1); no activity; format: functional, organism-based
[5] = test system: Human immunodeficiency virus 2; experiment: Antiviral activity against human immunodeficiency virus(HIV-2); no activity; format: functional, organism-based
[6] = test system: Human alphaherpesvirus 3; experiment: Antiviral activity against Varicella-Zoster virus (VZV); no activity; format: functional, organism-based
[7] = Half life at pH 3; format: ADME; conditions: buffer

Row | Compound | Activity [1] | Activity [2] | Activity [3] | Activity [4] | Activity [5] | Activity [6] | half-life [7]
1 | Nc1nc(O)c2ncn([C@@H]3C=C[C@H](OCP(=O)(O)O)OC3)c2n1 | inactive | inactive | inactive | inactive | inactive | inactive | 
2 | Nc1nc(O)c2ncn([C@H]3C=C[C@@H](OCP(=O)(O)O)CO3)c2n1 |  |  |  |  |  |  | 5 h
3 | Nc1nc(O)c2ncn([C@H]3C=C[C@@H](OCP(=O)(O)O)OC3)c2n1 | inactive | inactive | inactive | inactive | inactive | inactive | 
